Target: T1, rat EP4 receptor (Rattus norvegicus, UniProt P43114)
T1 construct: expressed in transfected cells
Assay: Cyclic AMP elevation in 293S cell lines stably overexpressing recombinant rat EP4 receptors
Type: cell-based
Conditions: 293S cells expressing rat EP4, 1 mM IBMX, 12 minutes at 37° C.; read-out: EC50 in the cAMP (rat EP4) elevation assay
Text: Determination of Cyclic AMP Elevation in 293S Cell Lines Stably Overexpressing Recombinant Rat EP4 Receptors Assay
cDNA representing the complete open reading frame of the rat EP4 receptor is generated by reverse transcriptase polymerase chain reaction using oligonucleotide primers based on published sequences. The full length coding sequence for the rat EP4 receptor is made in accordance with the procedure in Sando et al., Biochem. Biophys. Res. Comm. 1994, 200, 1329-1333, and RNA from rat kidney (EP4) as templates. 293S cells are transfected with the cloned rat EP4 receptor in pcDNA3 by lipid mediated transfection. Stable cell lines expressing the rat EP4 receptor are established following selection of transfected cells with Geneticin® (Invitrogen Corporation, Carlsbad, Calif.).
Clonal cell lines expressing the maximal number of receptors are chosen following a whole cell ^3H-PGE2 binding assay using unlabeled PGE2 as a competitor. […] Constitutive expression of the receptor in parental 293-S cells is negligible. A stable cell line containing the rat EP4 receptor is grown in Dulbecco's Mosified Eagle Medium/F12 (DMEM/F12) containing 10% fetal bovine serum and G418 (500 μg/ml) to 80% confluency.
cAMP responses in the 293-S/EP4 lines are determined by detaching cells from culture flasks in 1 ml of calcium (Ca++) and magnesium (Mg++) deficient phosphate buffered saline (PBS) via vigorous pounding and then rinsing the cells with calcium (Ca++) and magnesium (Mg++) deficient phosphate buffered saline (PBS). The cells are resuspended in MEM (Minimum Essential Medium), 1% BSA (bovine serum albumin), 50 mM HEPES (N-[2-Hydroxyethyl]piperazine-N′-[2-ethanesulfonic acid]) at 37° C. The cell suspension is counted on a hemacytometer and diluted by adding MEM (Minimum Essential Medium) to a final concentration of 1×10^6 cells/ml, and adding 3-isobutyl-1-methylxanthine (IBMX) to a final concentration of 1 mM. 200 microliters of cell suspension is immediately aliquoted into individual tubes and incubated for 10 minutes, uncovered, at 37° C., 5% CO2, 95% relative humidity. The compound of Formula I or II to be tested in either dimethylsulfoxide (DMSO) or ethanol is then added to cells at 1:100 dilutions such that the final DMSO or ethanol concentration is 1%. Typically, the cells are treated with 6-8 different concentrations (in 1 log increments, such as those described below) of the compound of Formula I or II. Typical concentrations of the compound of Formula I or II in this assay are between 10^−5M to 10^−10M. For example, a six point compound dose response assay tests the compound of Formula I or II at concentrations of 10^−5M, 10^−6M, 10^−7M, 10^−8M, 10^−9M and 10^—10M. Immediately after adding the test compound, the tubes are covered, mixed by inverting two times, and incubated at 37° C. for 12 minutes. Samples are then lysed by incubation at 100° C. for 10 minutes and immediately cooled on ice for 5 minutes to approximately 4° C. Cellular debris is pelleted by centrifugation at 3500×g for 5 minutes at approximately 4° C., and cleared lysates are transferred to fresh tubes. cAMP concentrations are determined using a commercially available ^125I-cAMP radioimmunoassay (RIA) kit (NEK-033, Perkin-Elmer Life Sciences, Inc., Boston, Mass.). The cleared lysates are diluted 1:100 in cAMP RIA assay buffer (included in kit) and centrifuged again. 50 microliters of the resulting supernatant is transferred to a 12×75 mm glass tube and data is collected by scintillation counting using a Wallac Cobra II Gamma Counter (Perkin-Elmer Wallac, Inc., Gaithersburg, Md.). EC50 calculations are performed on a calculator using linear regression analysis on the linear portion of the dose response curves or using Data Fitter.

T1 sequence (P43114 whole entry): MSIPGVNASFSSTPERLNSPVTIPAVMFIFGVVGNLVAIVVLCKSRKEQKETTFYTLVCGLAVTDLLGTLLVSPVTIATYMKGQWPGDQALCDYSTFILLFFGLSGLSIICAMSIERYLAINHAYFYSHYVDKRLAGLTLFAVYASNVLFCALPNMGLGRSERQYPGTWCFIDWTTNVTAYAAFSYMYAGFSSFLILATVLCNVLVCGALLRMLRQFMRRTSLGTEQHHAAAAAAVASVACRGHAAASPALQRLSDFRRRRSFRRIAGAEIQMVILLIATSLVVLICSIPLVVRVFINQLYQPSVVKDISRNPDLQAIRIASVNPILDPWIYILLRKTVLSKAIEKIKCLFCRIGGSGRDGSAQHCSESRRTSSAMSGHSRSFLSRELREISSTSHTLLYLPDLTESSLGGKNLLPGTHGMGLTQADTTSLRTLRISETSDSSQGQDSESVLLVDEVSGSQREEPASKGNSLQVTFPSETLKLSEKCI

SMILES	EC50 [µM]
O=C(O)CCCCCCN1C(=O)CC[C@@H]1CC[C@@H](O)Cc1cccc(Cl)c1 [Example 1, 7-{2S-[4-(3-Chloro-phenyl)-3R-hydroxy-butyl]-5-oxo-pyrrolidin-1-yl}-heptanoic acid]	0.0088
O=C(O)CCCCCCN1C(=O)CC[C@@H]1CC[C@@H](O)Cc1cccc(C(F)(F)F)c1 [Example 2, 7-{2S-[3R-hydroxy-4-(3-trifluoromethyl-phenyl)-butyl]-5-oxo-pyrrolidin-1-yl}-heptanoic acid]	0.0132
O=C1CC[C@H](CCC(O)Cc2cccc(Cl)c2)N1CCCCCCc1nn[nH]n1 (stereo partly drawn) [Example 3, 5S-[4-(3-Chloro-phenyl)-3-hydroxy-butyl]-1-[6-(2H-tetrazol-5-yl)-hexyl]-pyrrolidin-2-one]	0.0331
O=C1CC[C@H](CC[C@@H](O)Cc2cccc(C(F)(F)F)c2)N1CCCCCCc1nn[nH]n1 [Example 4, 5S-[3R-Hydroxy-4-(3-trifluoromethyl-phenyl)-butyl]-1-[6-(2H-tetrazol-5-yl)-hexyl]-pyrrolidin-2-one]	0.0702
O=C1CCC(CCC(O)Cc2cccc(-c3ccccc3)c2)N1CCCCCCc1nn[nH]n1 (stereo not drawn) [Example 6, 5-(4-Biphenyl-3-yl-3-hydroxy-butyl)-1-[6-(2H-tetrazol-5-yl)-hexyl]-pyrrolidin-2-one]	0.175
O=C(O)CCCCCCN1C(=O)CCC1CCC(O)Cc1ccccc1 (stereo not drawn) [Example 9, 7-(2-(3-hydroxy-4-phenyl-butyl)-5-oxo-pyrrolidin-1-yl)-heptanoic acid]	0.0325

Source: patent US20030176479A1, “Use of selective EP4 receptor agonists for the treatment of liver failure, loss of patency of the ductus arteriosus, glaucoma or ocular hypertension” (priority 2002, published 2003)
